# Patent US20060252827A1, “Therapeutic use of acyglycerols and the nitrogen-and sulphur-containing analogues thereof” (priority 2003, published 2006)
# Columns and labels:
# [1] = tested on: LDL; test: LDL oxidation by copper, conjugated diene formation (OD 234 nm); type: biochemical; details: for decrease in the maximum amount of conjugated dienes formed: copper alone 496 nmol per mg of LDL, FIG. 2c; for rate of conjugated diene formation (LDL oxidation rate): copper alone 3, FIG. 2b; for increase in the lag phase: relative to copper alone; for increase in the lag phase / lag phase for conjugated diene formation: FIG. 2a; for lag phase for conjugated diene formation: copper alone 104 minutes
# Method: LDL were prepared as described in Lebeau et al. (Lebeau, Furman et al. 2000). The solutions of the test compounds were prepared at 10^−2 M in ethanol and diluted in PBS so that the final concentration ranged from 0.1 to 100 μM with a total ethanol concentration of 1% (V/V).
# Before oxidation, EDTA was removed from the LDL preparation by dialysis. The oxidation reaction was then carried out at 30° C. by adding 100 μl of 16.6 μM CuSO4 or 2 mM MPH to 800 μl of LDL (125 μg protein/ml) and 100 μl of a test compound solution. The formation of dienes, the species to be followed, was measured by the optical density at 234 nm in the samples treated with the compounds in the presence or absence of copper (or MPH). Optical density at 234 nm was measured every 10 minutes for 8 hours on a thermostated spectrophotometer (Kontron Uvikon 930). The analyses were carried out in triplicate. A compound was considered to have antioxidant activity when it shifted the lag phase latency relative to the control sample. […] FIG. 2 presents an example of the results obtained with the inventive compounds.
# [2] = molecular target: T1, hPPARα (Gal4/PPARα chimera) (Homo sapiens, UniProt Q07869); test: Gal4/PPARα transactivation system in HepG2 cells (luciferase); type: cell-based; details: HepG2, 24 h, PC liposomes, FIG. 3
# T1 construct: expressed in transfected cells; host or cells: HepG2
# T1 sequence (Q07869 239-466 limits assumed): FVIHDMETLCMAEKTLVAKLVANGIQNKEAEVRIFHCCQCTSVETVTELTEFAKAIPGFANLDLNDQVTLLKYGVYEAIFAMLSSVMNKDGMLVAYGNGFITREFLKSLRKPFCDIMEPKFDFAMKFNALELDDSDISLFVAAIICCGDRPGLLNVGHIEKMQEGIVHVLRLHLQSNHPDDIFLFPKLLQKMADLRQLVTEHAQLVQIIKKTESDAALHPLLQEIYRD
# Method: PPAR activation was tested in vitro in RK13 fibroblast cell lines or in a […] line HepG2 by measuring the transcriptional activity of chimeras composed of the DNA binding domain of the yeast gal4 transcription factor and the ligand binding domain of the different PPARs. The example below is given for HepG2 cells.
# HepG2 cells were from ECACC (Porton Down, UK) and were grown in DMEM medium supplemented with 10% (V/V) fetal calf serum, 100 U/ml penicillin (Gibco, Paisley, UK) and 2 mM L-glutamine (Gibco, Paisley, UK). The culture medium was changed every two days. Cells were kept at 37° C. in a humidified 95% air/5% CO2 atmosphere.
# The plasmids pG5TkpGL3, pRL-CMV, pGal4-hPPARα, pGal4-hPPARγ and pGal4-f have been described by Raspe et al. (Raspe, Madsen et al. 1999). The pGal4-mPPARα and pGal4-hPPARβ constructs were obtained by cloning PCR-amplified DNA fragments corresponding to the DEF domains of the mouse PPARα and human PPARβ nuclear receptors, respectively, into the pGal4-f vector.
# HepG2 cells were seeded in 24-well culture dishes at 5×10^4 cells/well and transfected for 2 hours with the reporter plasmid pG5TkpGL3 (50 ng/well), the expression vectors pGal4-f, pGal4-mPPARα, pGal4-hPPARα, pGal4-hPPARγ, pGal4-hPPAβ (100 ng/well) and the transfection efficiency control vector pRL-CMV (1 ng/well) according to the previously described protocol (Raspe, Madsen et al. 1999), then incubated for 36 hours with the test compounds. At the end of the experiment, the cells were lysed (Gibco, Paisley, UK) and luciferase activity was determined with a Dual-Luciferase™ Reporter Assay System kit (Promega, Madison, Wis., USA) according to the supplier's instructions. The protein content of the cell extracts was then measured with the Bio-Rad Protein Assay (Bio-Rad, Munich, Germany) as directed by the supplier.
# FIG. 3: HepG2 cells transfected with Gal4/PPARα plasmids were incubated with different concentrations of inventive compounds (5, 15, 50 and 100 μM) for 24 h and with different concentrations of the vehicle (PC). The results are expressed as the induction factor (luminescent signal relative to untreated cells) after the different treatments. […] The induction factors for compound Ex 4p were 35 at 100 μM, 44 at 50 μM, 36 at 15 μM and 24 at 5 μM. In contrast, when the cells were incubated with the vehicle (PC liposome), no significant induction was observed.
# [3] = tested on: ischemia induced by occlusion of the middle cerebral artery; test: Cerebral ischemia-reperfusion model, prophylactic treatment, brain infarct volume; type: in vivo, Wistar rats
# Method: (§1) Wistar rats weighing 200 to 350 g were used for this experiment. Animals were treated by gavage with the inventive compounds (600 mg/kg/day) in suspension in the vehicle (0.5% carboxycellulose (CMC) and 0.1% Tween) or with the vehicle alone, for 14 days before ischemia induction by occlusion of the middle cerebral artery. Animals were anesthetized by intraperitoneal injection of 300 mg/kg chloral hydrate. A rectal probe was inserted and body temperature was maintained at 37° C.±0.5° C. Blood pressure was monitored throughout the experiment. Under a surgical microscope, the right carotid artery was exposed by a median incision in the neck. The pterygopalatine artery was ligated at its origin and an arteriotomy was fashioned in the external carotid artery so as to insert a nylon monofilament, which was gently advanced to the common carotid artery and then into the internal carotid artery so as to occlude the origin of the middle cerebral artery. The filament was withdrawn one hour later to allow reperfusion. Twenty-four hours after reperfusion, animals previously treated or not with the inventive compounds were euthanized by pentobarbital overdose. Brains were rapidly frozen and sliced. Sections were stained with cresyl violet. Unstained zones of the brain sections were considered to be damaged by the infarct. Areas (of the infarct and the two hemispheres) were measured and the volume of the infarct and the two hemispheres was calculated and the corrected infarct volume was determined by the following formula: (corrected infarct volume=infarct volume−(volume of right hemisphere−volume of left hemisphere)) to compensate for cerebral oedema.
# [4] = tested on: ischemia induced by occlusion of the middle cerebral artery; test: Cerebral ischemia-reperfusion model, curative or acute phase treatment, brain infarct volume; type: in vivo, Wistar rats
# Method: as §1, with “Animals such as those described previously” for “Wistar rats weighing 200 to 350 g”, “experiment.” for “experiment. Animals were treated by gavage with the inventive compounds (600 mg/kg/day) in suspension in the vehicle (0.5% carboxycellulose (CMC) and 0.1% Tween) or with the vehicle alone, for 14 days before ischemia induction by occlusion of the middle cerebral artery.”, “Animals first subjected to ischemia-reperfusion were treated with the inventive compounds by the oral route (such as previously described in CMC+Tween vehicle) one or more times after reperfusion (600 mg/kg/day or 300 mg/kg/day bid). 24, 48 or 72” for “Twenty-four”, “the” for “the inventive”, “measured,” for “measured and”
# [5] = prophylactic treatment, FIG. 4b
induction factor (luminescent signal relative to untreated cells) ([2]; 5 μM) [fold],induction factor (luminescent signal relative to untreated cells) ([2]; 15 μM) [fold],induction factor (luminescent signal relative to untreated cells) ([2]; 50 μM) [fold],induction factor (luminescent signal relative to untreated cells) ([2]; 100 μM) [fold],Compound,decrease in the maximum amount of conjugated dienes formed ([1]; compound at 10^-4 M) [%],rate of conjugated diene formation (LDL oxidation rate) ([1]; compound at 10^-4 M),increase in the lag phase [1] [%],effect on the LDL oxidation rate (in words) ([1]; FIG. 2b),other results
,,,,"1,3-dilinoleyl-2-tetradecylthioacetylglycerol [Ex 4h]",24,2.5 nmol/min/mg of LDL,43,,
17,31,41,62,"CCCCCCCCCCCCCCSCC(=O)OCC(O)CO (stereo not drawn) [Ex 2a, 1-tetradecylthioacetylglycerol]",,,67,did not significantly alter,
9,18,30,41,"CCCCCCCCCCCCCCSCC(=O)OCC(COC(=O)CSCCCCCCCCCCCCCC)OC(=O)CSCCCCCCCCCCCCCC [Ex 4a, 1,2,3-tritetradecylthioacetylglycerol]",60,1 nmol/min/mg of LDL,160,,"decrease in lesion size relative to control animals ([3]; oral, 300 mg/kg/day bid, 14 days before ischemia, FIG. 4a): 22%; corrected total infarct volume (lesion size) ([3]; oral, 300 mg/kg/day bid, 14 days before ischemia, controls 186 mm^3, FIG. 4a): 145 mm^3; decrease in lesions, cortical infarct (uncorrected infarct volume) [3, 5]: 22%; effect on striatal infarct (uncorrected infarct volume), in words [3, 5]: no significant decrease in lesions; lesions smaller than control animals ([4]; 600 mg/kg/day for 24 hours after ischemia, FIG. 4c): 27%; infarct volume ([4]; 600 mg/kg/day for 24 hours after ischemia, controls 180 mm^3, FIG. 4c): 132 mm^3; lesions smaller than control animals ([4]; 600 mg/kg/day for 72 hours after ischemia, FIG. 4e): 40%; corrected infarct volume ([4]; 600 mg/kg/day for 72 hours after ischemia, controls 180 mm^3, FIG. 4e): 110 mm^3; decrease in lesions, cortical infarct (uncorrected infarct volume) ([4]; acute phase 24 h, FIG. 4d): 25%; effect on striatal infarct (uncorrected infarct volume), in words ([4]; acute phase 24 h, FIG. 4d): no significant decrease in lesions; decrease in lesions, cortical infarct (uncorrected infarct volume) ([4]; acute phase 72 h, FIG. 4f): 32%; decrease in lesions, striatal infarct (uncorrected infarct volume) ([4]; acute phase 72 h, FIG. 4f): 23%; decrease in the oxidation rate ([1]; compound at 10^-4 M, FIG. 2b): 66%; lag phase for conjugated diene formation ([1]; compound at 10^-4 M): 270 min"
,,,,"CCCCCCCCCCCCCCCC(=O)OCC(COC(=O)CCCCCCCCCCCCCCC)OC(=O)CSCCCCCCCCCCCCCC [Ex 4g, 1,3-dipalmitoyl-2-tetradecylthioacetylglycerol]",31,1.8 nmol/min/mg of LDL,170,,lag phase for conjugated diene formation ([1]; compound at 10^-4 M): 282 min
,,,,"CCCCCCCCCCCCCCCC(=O)OC(COC(=O)CSCCCCCCCCCCCCCC)COC(=O)CSCCCCCCCCCCCCCC [Ex 4o, 1,3-ditetradecylthioacetyl-2-palmitoylglycerol]",,,37,did not significantly alter,
24,36,44,35,"CCCCCCCCCCCCCCSCC(=O)OC(COC(C)=O)COC(C)=O [Ex 4p, 1,3-diacetyl-2-tetradecylthioacetylglycerol]",,,,,
,,,,"CCCCCCCCCCCCCCSCC(=O)OC(COC(=O)CCCCCCC)COC(=O)CCCCCCC [Ex 4q, 1,3-dioctanoyl-2-tetradecylthioacetylglycerol]",,,54,did not significantly alter,
